From the supplement of paper PMC11061612

What was measured:
Experiment in all cases: Bliss excess, mean over the matrix (fraction); higher = more synergy
[1] = system: HCC1428 (Breast Carcinoma)
How it was run: (§1)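 Bliss excess equals the observed combination effect minus the expected value EA + EB − EA·EB, where EA and EB are the effects of each agent alone. Combination Emax is the second-highest inhibition within the matrix. Inhibition was scaled from CellTiter-Glo 2.0 luminescence, with 0 set by vehicle wells and 1 by blank wells, after 72 hours of two-drug dosing of cells plated in 1536-well plates.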

[2] = system: GA-10 (Burkitt's Lymphoma)
How it was run: as §1

[3] = system: SW620 (Colorectal Carcinoma)
How it was run: as §1

[4] = system: JIMT-1 (Breast Carcinoma)
How it was run: as §1

WM1552C (Melanoma) = system: WM1552C (Melanoma)
How it was run: as §1

HCC70 (Breast Carcinoma) = system: HCC70 (Breast Carcinoma)
How it was run: as §1

[5] = system: HCC1395 (Breast Carcinoma)
How it was run: as §1

[6] = system: Jurkat (T-Lymphoblastic Leukemia)
How it was run: as §1

[7] = system: EPLC-272H (Other Solid Carcinomas)
How it was run: as §1

A204 (Rhabdomyosarcoma) = system: A204 (Rhabdomyosarcoma)
How it was run: as §1

[8] = system: OACp4C (Esophageal Adenocarcinoma)
How it was run: as §1

[9] = system: NCI-H2087 (Lung Adenocarcinoma)
How it was run: as §1

[10] = system: CA46 (Burkitt's Lymphoma)
How it was run: as §1

[11] = system: 22RV1 (Prostate Carcinoma)
How it was run: as §1

[12] = system: JHU-022 (Oral Cavity Carcinoma)
How it was run: as §1

[13] = system: A2780 (Ovarian Carcinoma)
How it was run: as §1

[14] = system: DMS-53 (Small Cell Lung Carcinoma)
How it was run: as §1

RH-41 (Rhabdomyosarcoma) = system: RH-41 (Rhabdomyosarcoma)
How it was run: as §1

[15] = system: LS-411N (Colorectal Carcinoma)
How it was run: as §1

[16] = system: NCI-H2228 (Lung Adenocarcinoma)
How it was run: as §1

Row | SMILES | Bliss excess [1] | Bliss excess [2] | Bliss excess [3] | Bliss excess [4] | Bliss excess (WM1552C (Melanoma)) | Bliss excess (HCC70 (Breast Carcinoma)) | Bliss excess [5] | Bliss excess [6] | Bliss excess [7] | Bliss excess (A204 (Rhabdomyosarcoma)) | Bliss excess [8] | Bliss excess [9] | Bliss excess [10] | Bliss excess [11] | Bliss excess [12] | Bliss excess [13] | Bliss excess [14] | Bliss excess (RH-41 (Rhabdomyosarcoma)) | Bliss excess [15] | Bliss excess [16]
1 | CC1(C)CCC(CN2CCN(c3ccc(C(=O)NS(=O)(=O)c4ccc(NCC5CCOCC5)c([N+](=O)[O-])c4)c(Oc4cnc5[nH]ccc5c4)c3)CC2)=C(c2ccc(Cl)cc2)C1 [Venetoclax] + C[C@@H]1COCCN1C2=NC(=NC(=C2)C3(CC3)[S@](=N)(=O)C)C4=C5C=CNC5=NC=C4 [AZD6738] (first compound max 1 µM, 7x7, partner max 10 µM) | -0.0137 | -0.0281 | -0.0365 | -0.0643 | -0.0603 | -0.0528 | -0.0671 | 0.0361 | -0.0233 | -0.0355 | -0.0418 | -0.0511 | 0.0093 | -0.0368 | -0.007 | -0.0548 | 0.119 | 0.0355 | -0.0311 | -0.0361
2 | CC1(C)CCC(CN2CCN(c3ccc(C(=O)NS(=O)(=O)c4ccc(NCC5CCOCC5)c([N+](=O)[O-])c4)c(Oc4cnc5[nH]ccc5c4)c3)CC2)=C(c2ccc(Cl)cc2)C1 [Venetoclax] + C[C@@H](Nc1cc(F)cc(F)c1)c1cc(C(=O)N(C)C)cc2c(=O)cc(N3CCOCC3)oc12 [AZD8186] (first compound max 1 µM, 7x7, partner max 3 µM) | -0.0147 | -0.0088 | -0.0505 | -0.0411 | -0.0157 | 0.0376 | 0.0107 | 0.0084 | 0.0111 | -0.0152 | 0.0104 | -0.0442 | 0.0323 | -0.0172 | -0.0563 | -0.0138 | -0.0141 | 0.0587 | 0.0099 | 0.0129
3 | CC1(C)CCC(CN2CCN(c3ccc(C(=O)NS(=O)(=O)c4ccc(NCC5CCOCC5)c([N+](=O)[O-])c4)c(Oc4cnc5[nH]ccc5c4)c3)CC2)=C(c2ccc(Cl)cc2)C1 [Venetoclax] + Cc1cc2ncnn2cc1Nc1ncc2c(n1)n(C1CCOCC1)c(=O)n2C [AZD7648] (first compound max 1 µM, 7x7, partner max 10 µM) | -0.006 | -0.0603 | -0.0452 | -0.0248 | -0.0571 | -0.0423 | -0.0491 | 0.0164 | -0.0656 | -0.0172 | -0.0027 | -0.0467 | -0.0454 | -0.0313 | -0.0392 | -0.03 | 0.11 | -0.0007 | -0.0184 | -0.0072
4 | CC1(C)CCC(CN2CCN(c3ccc(C(=O)NS(=O)(=O)c4ccc(NCC5CCOCC5)c([N+](=O)[O-])c4)c(Oc4cnc5[nH]ccc5c4)c3)CC2)=C(c2ccc(Cl)cc2)C1 [Venetoclax] + Cn1cnc2c(F)c(Nc3ccc(Br)cc3Cl)c(C(=O)NOCCO)cc21 [Selumetinib] (first compound max 1 µM, 7x7, partner max 3 µM) | -0.026 | -0.0622 | -0.0414 | -0.0429 | -0.0062 | 0.0707 | -0.0171 | 0.0054 | -0.0184 | -0.0293 | 0.0303 | -0.0207 | -0.068 | -0.0091 | -0.0181 | 0.0027 | 0.0543 | 0.0237 | -0.0148 | -0.0135
